Reference: ChEMBL document CHEMBL5036353, “Discovery of Pyrazolo[3,4-d]pyridazinone Derivatives as Selective DDR1 Inhibitors via Deep Learning Based Design, Synthesis, and Biological Evaluation” (J Med Chem, 2022)
Calls of active or inactive are those of the source. No cut-off for these calls is given here.

What was measured:
Macrophage [1] = experiment: Antiinflammatory activity against mouse primary bone marrow derived macrophages assessed as inhibition of LPS-induced IL-6 expression by ELISA; format: functional, tissue-based; details: dose 10.0 µM
Macrophage [2] = experiment: Antiinflammatory activity against mouse primary bone marrow derived macrophages assessed as inhibition of LPS-induced IL-1beta expression at 10 uM by ELISA; format: functional, tissue-based
Macrophage [3] = experiment: Antiinflammatory activity against mouse primary bone marrow derived macrophages assessed as inhibition of LPS-induced TNF expression at 10 uM by ELISA; format: functional, tissue-based
THP-1 [4] = experiment: Antiinflammatory activity against human THP-1 derived macrophages assessed as inhibition of LPS-induced IL6 expression by ELISA; format: functional, cell-based; details: dose 10.0 µM
THP-1 [5] = experiment: Antiinflammatory activity against human THP-1 derived macrophage assessed as inhibition of LPS-induced IL-1beta expression at 10 uM by ELISA; format: functional, cell-based
THP-1 [6] = experiment: Antiinflammatory activity against human THP-1 derived macrophage assessed as inhibition of LPS-induced TNF expression at 10 uM by ELISA; format: functional, cell-based
Mus musculus [7] = experiment: Anti-colitis activity against DSS-induced IBD C57BL/6 mouse model assessed as improvement in DSS induced weight loss at 5 to 10 mg/kg, po administered daily and measured after 5 to 8 days; format: functional, organism-based; details: dose 5-10 mg/kg, time 5-8 day
Mus musculus [8] = experiment: Anti-colitis activity against DSS-induced IBD C57BL/6 mouse model assessed as reduction in fecal occult blood score at 5 to 10 mg/kg, po administered daily and measured after 9 days; format: functional, organism-based; details: dose 5-10 mg/kg, time 9.0 day
Mus musculus [9] = experiment: Anti-colitis activity against DSS-induced IBD C57BL/6 mouse model assessed as improvement in DSS reduced colon length at 5 to 10 mg/kg, po administered daily and measured after 9 days; format: functional, organism-based; details: dose 5-10 mg/kg, time 9.0 day
Mus musculus [10] = experiment: Anti-colitis activity against DSS-induced IBD C57BL/6 mouse model assessed as reduction in IL-6 transcription level in colon at 5 to 10 mg/kg, po administered daily by RT-qPCR analysis; format: functional, organism-based; details: dose 5-10 mg/kg
Mus musculus [11] = experiment: Anti-colitis activity against DSS-induced IBD C57BL/6 mouse model assessed as reduction in IL-1beta transcription level in colon at 5 to 10 mg/kg, po administered daily by RT-qPCR analysis; format: functional, organism-based; details: dose 5-10 mg/kg
Mus musculus [12] = experiment: Anti-colitis activity against DSS-induced IBD C57BL/6 mouse model assessed as reduction in TNF transcription level in colon at 5 to 10 mg/kg, po administered daily by RT-qPCR analysis; format: functional, organism-based; details: dose 5-10 mg/kg
Mus musculus [13] = experiment: Anti-colitis activity against DSS-induced IBD C57BL/6 mouse model assessed as reduction in serum IL-6 expression at 5 to 10 mg/kg, po administered daily by ELISA; format: functional, organism-based; details: dose 5-10 mg/kg
Mus musculus [14] = experiment: Anti-colitis activity against DSS-induced IBD C57BL/6 mouse model assessed as reduction in serum IL-1beta expression at 5 to 10 mg/kg, po administered daily by ELISA; format: functional, organism-based; details: dose 5-10 mg/kg
Mus musculus [15] = experiment: Anti-colitis activity against DSS-induced IBD C57BL/6 mouse model assessed as reduction in serum TNF expression at 5 to 10 mg/kg, po administered daily by ELISA; format: functional, organism-based; details: dose 5-10 mg/kg
[16] = molecular target: NT-3 growth factor receptor (Homo sapiens) (UniProt Q16288); experiment: Inhibition of recombinant human TRKC (510 to end residues) assessed as residual activity at 10 uM using GEEPLYWSFPAKKK as substrate incubated for 40 mins in presence of [gamma33P]ATP by scintillation counting based radiometry assay relative to control
Chain of NT-3 growth factor receptor (Homo sapiens) (Q16288 32-839 limits assumed): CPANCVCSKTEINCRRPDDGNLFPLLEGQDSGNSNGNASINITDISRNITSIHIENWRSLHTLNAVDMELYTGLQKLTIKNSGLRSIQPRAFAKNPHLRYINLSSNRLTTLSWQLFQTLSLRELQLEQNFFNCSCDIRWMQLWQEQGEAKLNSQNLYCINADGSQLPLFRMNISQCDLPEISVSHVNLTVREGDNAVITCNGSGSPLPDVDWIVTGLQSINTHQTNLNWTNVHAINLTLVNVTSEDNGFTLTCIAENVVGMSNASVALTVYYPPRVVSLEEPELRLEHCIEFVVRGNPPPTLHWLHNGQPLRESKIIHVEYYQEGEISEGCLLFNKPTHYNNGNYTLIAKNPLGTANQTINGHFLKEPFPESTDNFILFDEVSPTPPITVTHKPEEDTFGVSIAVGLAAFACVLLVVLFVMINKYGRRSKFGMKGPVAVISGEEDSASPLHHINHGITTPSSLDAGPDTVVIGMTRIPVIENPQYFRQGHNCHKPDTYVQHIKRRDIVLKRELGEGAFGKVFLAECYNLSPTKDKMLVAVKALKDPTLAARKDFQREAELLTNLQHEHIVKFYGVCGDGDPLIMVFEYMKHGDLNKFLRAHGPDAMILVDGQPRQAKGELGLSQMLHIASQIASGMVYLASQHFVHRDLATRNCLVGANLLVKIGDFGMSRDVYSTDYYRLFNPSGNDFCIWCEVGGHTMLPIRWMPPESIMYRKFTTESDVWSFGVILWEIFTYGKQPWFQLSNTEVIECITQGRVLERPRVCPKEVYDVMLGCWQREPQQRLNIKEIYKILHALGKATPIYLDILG

Mus musculus [17] = experiment: Anti-colitis activity against DSS-induced IBD C57BL/6 mouse model assessed as reduction in inflammatory cell infiltration in colon at 5 to 10 mg/kg, po administered daily measured after 9 days by HE staining based analysis; format: functional, organism-based; details: dose 5-10 mg/kg, time 9.0 day
Mus musculus [18] = experiment: Anti-colitis activity against DSS-induced IBD C57BL/6 mouse model assessed as reduction in severe epithelial destruction in colon at 5 to 10 mg/kg, po administered daily measured after 9 days by HE staining based analysis; format: functional, organism-based; details: dose 5-10 mg/kg, time 9.0 day
Mus musculus [19] = experiment: Anti-colitis activity against DSS-induced IBD C57BL/6 mouse model assessed as reduction in crypt loss in colon at 5 to 10 mg/kg, po administered daily measured after 9 days by HE staining based analysis; format: functional, organism-based; details: dose 5-10 mg/kg, time 9.0 day

CC(=O)Nc1ccc(-n2nc3c(=O)[nH]nc(N)c3c2-c2oc3cc(C(=O)Nc4cccc(C(F)(F)F)c4)ccc3c2C)cc1
Activity (Macrophage [1]): Dose-Dependent Effect
Activity (Macrophage [2]): Active
Activity (Macrophage [3]): Active
Activity (THP-1 [4]): Dose-Dependent Effect
Activity (THP-1 [5]): Active
Activity (THP-1 [6]): Active
Activity (Mus musculus [7]): Active
Activity (Mus musculus [8]): Active
Activity (Mus musculus [9]): Active
Activity (Mus musculus [10]): Active
Activity (Mus musculus [11]): Active
Activity (Mus musculus [12]): Active
Activity (Mus musculus [13]): Active
Activity (Mus musculus [14]): Active
Activity (Mus musculus [15]): Active
Activity [16]: 45%
Activity (Mus musculus [17]): Active
Activity (Mus musculus [18]): Active
Activity (Mus musculus [19]): Active
